# Starred links: 1 amine or outer side, 2 acyl side, 3 side chain; linkers in the order of their positions; H or OH if unused. Positions of bridges follow the written chain, without caps; N, C: chain ends. Non-standard residues stand in square brackets, D forms with d. Residues, ends and D or L forms follow the SMILES beside them. Chains are numbered I, II in the order given. *: point of attachment. isoGln = NC(=O)[C@H](CCC(=O)[*:2])N[*:1]; εLys = N[C@@H](CCCCN[*:1])C(=O)[*:2]; Dab = NCC[C@H](N)C(=O)O; PhAc = O=C(Cc1ccccc1)*
# How the values were obtained:
# rV1a receptor = target: T1, rV1a receptor (Rattus norvegicus, UniProt P30560); test: FLIPR calcium assay, rat V1a (A7r5 cells); type: cell-based; conditions: A7R5, read-out: % MPE
# T1 construct: endogenously expressing rV1a; host or cells: A7r5 rat thoracic aorta smooth muscle cells
# T1 sequence (P30560 whole entry): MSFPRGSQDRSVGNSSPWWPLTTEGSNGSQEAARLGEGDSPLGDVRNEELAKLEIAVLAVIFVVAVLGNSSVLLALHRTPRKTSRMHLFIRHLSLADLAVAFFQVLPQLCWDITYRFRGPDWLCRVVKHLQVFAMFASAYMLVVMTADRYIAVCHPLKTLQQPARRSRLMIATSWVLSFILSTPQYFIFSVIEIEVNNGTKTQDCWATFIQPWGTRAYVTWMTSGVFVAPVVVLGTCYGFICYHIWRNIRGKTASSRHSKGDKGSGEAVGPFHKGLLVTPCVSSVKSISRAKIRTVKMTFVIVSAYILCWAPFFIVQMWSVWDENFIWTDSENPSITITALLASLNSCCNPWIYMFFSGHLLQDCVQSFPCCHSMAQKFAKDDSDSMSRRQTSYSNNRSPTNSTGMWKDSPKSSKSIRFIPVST
# Description: Cell Lines. Studies were conducted with cell lines expressing rat (r) or human (h) Via, V1b, V2, or OT receptors. For the experiments with human receptors, human embryonic kidney (HEK)-flp-in cells stably expressing the lacZ-Zeocin™ fusion gene were used for expression of hV1a and hV1b. These cells were designed for use with the Flp-In™ expression vector containing the gene of interest (here hV1a or hV1b) and the Flp recombinase expression plasmid, pOG44. For hV2 and hOTR, HEK-293 cells transiently expressing hV2 were used.
# Functional Cell-Based Assays.
# skin blood flow (SBF) = test: Skin blood flow (SBF), laser Doppler, anesthetized Wistar rats, IV infusion; type: in vivo, rat
# Description: This study was performed over multiple experiments using a total of 48 adult male Wistar rats. […] Compounds were infused via an IV catheter at six sequentially increasing doses.
# On the day of experimentation animals were anesthetized and instrumented. A tracheostomy was performed to allow assisted respiration and three catheters were placed. Laser Doppler probes were positioned on a shaved portion of the animal's lower abdominal skin for blood-flow measurements. Ventilation was initiated, and baseline readings for the primary parameter of skin blood flow (SBF) were recorded. Readings for the secondary parameters were also recorded: (1) blood lactate concentration, (2) mean arterial pressure (MAP), and (3) blood pH. Data collection was performed continuously for SBF and MAP using NOTOCORD-hem™ (Instem), and blood samples were taken at each compound dose and immediately analyzed using an i-STAT® meter.
# After the final dose administration, animals were euthanized and a final SBF measurement was recorded to detect any signal from the flow probe after the animal's heart stopped beating to control for a signal not attributed to blood flow. Animal body temperature, pulse, and ventilation adequacy were monitored throughout the procedure.
# [1] = tested on: CCl4-induced rat model of cirrhosis and ascites; test: CCl4-induced cirrhosis and ascites rats, cohort 2 (single IV bolus), renal excretory function; type: in vivo; conditions: 100 μg/kg IV
# Description: Animals: 90 male Wistar rats (Charles River Laboratories, Espana S.A) weighing 200-220 grams at the time of receipt were subjected to a cirrhosis induction program; high dose CCl4 was administered by inhalation twice weekly (Monday and Friday) and phenobarbital (0.3 g/L) was added to drinking water. In some instances, liver damage in this model is caused by hepatotoxic CCl4 metabolites produced in the liver. In some instances, phenobarbital induction of the microsomal enzyme oxidizing system exaggerates the intensity of the hepatic necrosis. The data was collected from the treatment of 44 cirrhotic rats with ascites. Animals were allowed free access to food and water throughout the study.
# The study consisted of 3 treatment cohorts, as detailed in Table 10. Animals developing and maintaining ascites for 2 weeks were randomly assigned to treatment groups. Ringer Braun saline solution was used as vehicle. IV bolus were administered via femoral veins.
# Cohort 2: Animals were anesthetized and the left femoral artery and vein catheterized. Bladders were exposed by suprapubic incision and catheterized for urine collection. A priming dose of PAH (4 mg/animal) was administered via the jugular vein followed by a constant infusion (2 mL/hr) of Ringer solution containing 4 mg/mL PAH. After 30 minutes of infusion, a baseline 30 minute urine collection was obtained for urine volume, urine sodium content, urine creatinine content, and PAH measurements. In the middle of the 30 minute urine collection, a blood sample (0.8 mL) was obtained via the femoral artery catheter for PAH and creatinine measurements. […] Five 30 minute urine collections were performed over 150 minutes, with blood samples collected in the middle of each 30 minute urine collection. Following blood sampling, packed cells were reconstituted with Ringer solution and reinjected over a period of 3 minutes.
# [2] = tested on: methionine/choline-deficient (MCD) diet rats; test: ΔPP in methionine/choline-deficient (MCD) diet rats; type: in vivo, rat; conditions: for Δ PP (mean): SC, MCD diet rats
smiles,measurement,setting,value
"CC[C@H](C)[C@@H]1NC(=O)[C@H](Cc2ccccc2)NC(=O)[C@@H](N)CSSC[C@@H](C(=O)N2CCC[C@H]2C(=O)N[C@@H](CCNC(=O)[C@@H](N)CCCCNC(=O)[C@H](CCCCNC(C)=O)NC(=O)CC[C@H](NC(=O)[C@H](CCCNC(=N)N)NC(=O)[C@@H]2CCCN2C(=O)[C@H](C)NC(=O)[C@H](CC(N)=O)NC(=O)[C@H](CCC(N)=O)NC(=O)[C@H](Cc2ccccc2)NC(=O)[C@@H](Cc2ccc(OC)cc2)NC(=O)Cc2ccccc2)C(N)=O)C(=O)NCC(N)=O)NC(=O)[C@H](CC(N)=O)NC(=O)[C@H](CCC(N)=O)NC1=O [Compound 1, Glycinamide, L-cysteinyl-L-phenylalanyl-L-isoleucyl-L-glutaminyl-L-asparaginyl-L-cysteinyl-L-prolyl-N4-(phenylacetyl-O-methyl-D-tyrosyl-L-phenylalanyl-L-glutaminyl-L-asparaginyl-L-alanyl-L-prolyl-L-arginyl-L-isoglutamyl-N5-acetyl-L-lysyl-L-ε-lysyl)-L-2,4-diaminobutyryl-, cyclic (1→6)-disulfide] (I: H-CFIQNCP[Dab]G-NH2 / II: PhAc-[dY](Me)FQNAPR[isoGln]K(Ac)[εLys]; disulfide I:1-I:6; amide I:8-II:C)",Emax,rV1a receptor,30%
same,SBF ED50,skin blood flow (SBF),25.2 pmol/kg/min
same,SBF Emax,skin blood flow (SBF),38.6%
same,greatest percent change from baseline in skin flow,skin blood flow (SBF),−42.1%
same,Sodium Excretion,[1]; 0 min,0.4 μEq/min
same,Urine Volume,[1]; 0 min,8.4 µL/min
same,Sodium Excretion,[1]; 30 min,1.1 μEq/min
same,Urine Volume,[1]; 30 min,16.4 µL/min
same,Sodium Excretion,[1]; 60 min,4.1 μEq/min
same,Urine Volume,[1]; 60 min,26.5 µL/min
same,Sodium Excretion,[1]; 90 min,5.3 μEq/min
same,Urine Volume,[1]; 90 min,26.2 µL/min
same,Sodium Excretion,[1]; 120 min,7.0 μEq/min
same,Urine Volume,[1]; 120 min,32.3 µL/min
same,Sodium Excretion,[1]; 150 min,7.2 μEq/min
same,Urine Volume,[1]; 150 min,32.7 µL/min
same,Δ PP (mean),"[2]; 25 μg/kg, 0 min",0.0 mmHg
same,Δ PP (mean),"[2]; 25 μg/kg, 1 min",−0.3 mmHg
same,Δ PP (mean),"[2]; 25 μg/kg, 2 min",−0.8 mmHg
same,Δ PP (mean),"[2]; 25 μg/kg, 3 min",−1.3 mmHg
same,Δ PP (mean),"[2]; 25 μg/kg, 5 min",−1.8 mmHg
same,Δ PP (mean),"[2]; 25 μg/kg, 7 min",−1.9 mmHg
same,Δ PP (mean),"[2]; 25 μg/kg, 10 min",−2.1 mmHg
same,Δ PP (mean),"[2]; 25 μg/kg, 15 min",−2.2 mmHg
same,Δ PP (mean),"[2]; 25 μg/kg, 20 min",−2.3 mmHg
same,Δ PP (mean),"[2]; 25 μg/kg, 30 min",−2.3 mmHg
same,Δ PP (mean),"[2]; 25 μg/kg, 60 min",−2.2 mmHg
same,Δ PP (mean),"[2]; 25 μg/kg, 90 min",−1.8 mmHg
same,Δ PP (mean),"[2]; 100 μg/kg, 0 min",0.0 mmHg
same,Δ PP (mean),"[2]; 100 μg/kg, 1 min",−0.5 mmHg
same,Δ PP (mean),"[2]; 100 μg/kg, 2 min",−1.2 mmHg
same,Δ PP (mean),"[2]; 100 μg/kg, 3 min",−1.6 mmHg
same,Δ PP (mean),"[2]; 100 μg/kg, 5 min",−2.1 mmHg
same,Δ PP (mean),"[2]; 100 μg/kg, 7 min",−2.5 mmHg
same,Δ PP (mean),"[2]; 100 μg/kg, 10 min",−2.5 mmHg
same,Δ PP (mean),"[2]; 100 μg/kg, 15 min",−2.4 mmHg
same,Δ PP (mean),"[2]; 100 μg/kg, 20 min",−2.3 mmHg
same,Δ PP (mean),"[2]; 100 μg/kg, 30 min",−2.2 mmHg
same,Δ PP (mean),"[2]; 100 μg/kg, 60 min",−2.0 mmHg
same,Δ PP (mean),"[2]; 100 μg/kg, 90 min",−1.7 mmHg
same,Δ PP (mean),"[2]; 500 μg/kg, 0 min",0.0 mmHg
same,Δ PP (mean),"[2]; 500 μg/kg, 1 min",−1.2 mmHg
same,Δ PP (mean),"[2]; 500 μg/kg, 2 min",−1.9 mmHg
same,Δ PP (mean),"[2]; 500 μg/kg, 3 min",−2.5 mmHg
same,Δ PP (mean),"[2]; 500 μg/kg, 5 min",−2.9 mmHg
same,Δ PP (mean),"[2]; 500 μg/kg, 7 min",−3.3 mmHg
same,Δ PP (mean),"[2]; 500 μg/kg, 10 min",−2.9 mmHg
same,Δ PP (mean),"[2]; 500 μg/kg, 15 min",−3.5 mmHg
same,Δ PP (mean),"[2]; 500 μg/kg, 20 min",−3.8 mmHg
same,Δ PP (mean),"[2]; 500 μg/kg, 30 min",−3.9 mmHg
same,Δ PP (mean),"[2]; 500 μg/kg, 60 min",−3.4 mmHg
same,Δ PP (mean),"[2]; 500 μg/kg, 90 min",−3.7 mmHg
same,maximum ΔPP,[2]; SC 25 jag/kg (so in the source),−2.3±0.2 mmHg
same,maximum ΔPP,[2]; SC 100 jag/kg (so in the source),−2.5±0.3 mmHg
same,maximum ΔPP,[2]; SC 500 jag/kg (so in the source),−3.9±0.8 mmHg
